Reference: PubChem BioAssay AID1963972 (Molecular Pharmacology Branch, DTP, NCI, 2024)
“And” between values parts separate entries of the source, which are not always exact repeats. Equal entries are not always repeated.

System: 945468-187-T-J2-PDC spheroids viability
Test: Anticancer human tumor 945468-187-T-J2-PDC patient-derived rectal carcinoma cell line growth inhibition [PI3K]
Settings: spheroids with HUVEC and MSC; for viability, T/C: stronger effect = lower value
Excerpt: Combinatorial screen of targeted agents with the PI3K inhibitors inavolisib, alpelisib, duvelisib, and copanlisib in multi-cell type tumor spheroids
A high-throughput screen of multi-cell type tumor spheroids was designed to identify active combinations of targeted small molecules and PI3K pathway inhibitors. Complex spheroids include a stromal component modeled by human endothelial cells (HUVEC) and fibroblasts modeled by human mesenchymal stem cells (MSCs). The concentration ranges selected for each drug and investigational agent were based upon clinically achievable concentrations if the clinical Cmax of the agent was known.
Compounds. The drugs and investigational agents: inavolisib (NSC800729), alpelisib (NSC765974), duvelisib (NSC772469), copanlisib (NSC816437), ipatasertib (NSC767898), afuresertib (NSC778305), talazoparib (NSC767125), sapanisertib (NSC764658), selumetinib (NSC741078), tovorafenib (DAY101, NSC766906), vemurafenib (NSC761431), ravoxertinib (NSC781343), sotorasib (NSC818433), MRTX1133 (NSC 836407), abemaciclib (NSC 768073), palbociclib (NSC758247), venetoclax (NSC 766270), SY5609 (NSC837396), enzalutamide (NSC755605), and darolutamide (NSC825331), were obtained from the National Cancer Institute (NCI) Developmental Therapeutics Program Chemical Repository. The FDA-approved anticancer drug set is available from the NCI Developmental Therapeutics Program. […] The stock solutions were prepared in dimethyl sulfoxide (DMSO, Sigma-Aldrich, St. Louis, MO, cat. D2650) at 800-fold the tested concentration and stored at -70 degrees C prior to their use. All drugs and investigational agents were tested over a range starting from a high concentration at or near the clinical Cmax and decreasing in half-log increments. If the clinical Cmax for an agent had not been determined, the highest concentration tested was 10 microM.
Cell Culture. All cells were maintained in an incubator at 37 degrees C and 5% CO2 with 95% humidity. The PDC lines were cultured according to standard operating procedures established by the NCI PDMR (https://pdmr.cancer.gov/sops/default.htm). All PDCs were thawed and cultured in Matrigel-coated flasks prepared with a working solution of 1X Ham's F-12 nutrient mix, without supplementation (Invitrogen, Waltham, MA, cat. 11765054), 100 U/mL penicillin-streptomycin (Invitrogen, cat. 15140122), and 2.5% Matrigel (Corning Inc., Corning, NY, cat. 354248) for the first three passages. The 354836-022-R-J1-PDC, 475296-252-R-J1-PDC, and 997726-040-R-J2-PDC lines were cultured in 6A media, which includes advanced DMEM/F-12 (Thermo Fisher Scientific, cat. 12634028), 10 mM HEPES (Thermo Fisher Scientific, cat. 15630080), 1X GlutaMAX supplement (Thermo Fisher Scientific, cat. 35050061), 0.1 mg/mL primocin (InvivoGen, San Diego, CA, cat. ant-pm-2), 10% defined fetal bovine serum, heat inactivated (HyClone Laboratories Inc., Logan, UT, cat. SH30070.03HI), 50% L-WRN conditioned media (ATCC, cat. CRL-3276), 1.25 mM N-Acetyl-L-cysteine (Sigma-Aldrich, cat. A9165), 10 mM nicotinamide (Sigma-Aldrich, cat. N0636), 1X B-27 supplement (Thermo Fisher Scientific, cat. 17504044), 1X N-2 supplement (Thermo Fisher Scientific, cat. 17502048), and 10 microM Y-27632 dihydrochloride (Tocris Bioscience, Bristol, United Kingdom, cat. 1254). The 624824-186-R-J2-PDC line was cultured in 6C/Colon 1B media, which includes all 6A media components plus 50 ng/mL human EGF recombinant protein (Thermo Fisher Scientific, cat. PHG0311). […]

[1] = compound alone, run of 04/24/2023
[2] = compound alone, run of 04/25/2023
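Note: spheroids exposed to compounds for seven days before reading.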

IC50 (curve of compound)	Compound	viability, T/C (compound 0.0316 µM)	viability, T/C (compound 0.316 µM)	viability, T/C (compound 0.1 µM)	viability, T/C (compound 3.16 µM)	viability, T/C (compound 1 µM)	further results
> 10 µM	C#Cc1c(F)ccc2cc(O)cc(-c3ncc4c(N5CC6CCC(C5)N6)nc(OCC56CCCN5CC(F)C6)nc4c3F)c12 (stereo not given)	109% [middle of 4 runs]	106% (2×) and 90.2% and 116%				
> 10 µM	C=CC(=O)N1CCN(c2nc(=O)n(-c3c(C)ccnc3C(C)C)c3nc(-c4c(O)cccc4F)c(F)cc23)C(C)C1 (stereo not given)		95.7% [middle of 4 runs]	104% [middle of 4 runs]	104% (2×) and 113% and 89.9%		viability, T/C (compound 10 µM): 107% [middle of 4 runs]
> 0.1 µM	CC(=O)c1c(C)c2cnc(Nc3ccc(N4CCNCC4)cn3)nc2n(C2CCCC2)c1=O						viability, T/C (compound 0.000316 µM): 105% [middle of 4 runs]; viability, T/C (compound 0.00316 µM): 90.6% [middle of 4 runs]; viability, T/C (compound 0.01 µM): 104% [middle of 4 runs]
> 10 µM	CC(C)NCC(C(=O)N1CCN(c2ncnc3c2C(C)CC3O)CC1)c1ccc(Cl)cc1 (stereo not given)		90.2% [middle of 4 runs]	91.8% [middle of 4 runs]	99.7% [middle of 4 runs]	103% [middle of 4 runs]	
> 0.1 µM	CC(C)n1nc(-c2ccc3oc(N)nc3c2)c2c(N)ncnc21	94.4% [middle of 4 runs]		71.9% [middle of 4 runs]			viability, T/C (compound 0.001 µM): 92.3% [middle of 4 runs]
> 10 µM	CC(Cn1ccc(-c2ccc(C#N)c(Cl)c2)n1)NC(=O)c1cc(C(C)O)[nH]n1 (stereo not given)				93.7% [middle of 4 runs]		
	CC(Nc1ccc2c(c1)OCCn1cc(N3C(=O)OCC3C(F)F)nc1-2)C(N)=O (stereo not given)		91.7% [middle of 8 runs]	106% [middle of 8 runs]		76.9% [middle of 8 runs]	viability, T/C (compound 0.01 µM): 99% [middle of 8 runs]; IC50 [1]: > 1 µM
	CC(Nc1ncnc2nc[nH]c12)c1cc2cccc(Cl)c2c(=O)n1-c1ccccc1 (stereo not given)		96.3% [middle of 8 runs]	91.9% [middle of 8 runs]			viability, T/C (compound 10 µM): 103% [middle of 8 runs]; IC50 [2]: > 10 µM
> 10 µM	CC1(C)CCC(CN2CCN(c3ccc(C(=O)NS(=O)(=O)c4ccc(NCC5CCOCC5)c([N+](=O)[O-])c4)c(Oc4cnc5[nH]ccc5c4)c3)CC2)=C(c2ccc(Cl)cc2)C1		94.6% [middle of 4 runs]		96.3% [middle of 4 runs]	103% [middle of 4 runs]	
	CC1(C)CCC(Nc2ncc(C(F)(F)F)c(-c3c[nH]c4c(P(C)(C)=O)c(C#N)ccc34)n2)CN1 (stereo not given)	94.2% (2×) and 113% and 89.1%		96.6% [middle of 4 runs]	43% [middle of 4 runs]		
5.05 µM [middle of 4 runs]	CCCS(=O)(=O)Nc1ccc(F)c(C(=O)c2c[nH]c3ncc(-c4ccc(Cl)cc4)cc23)c1F	104% [middle of 4 runs]	94% [middle of 4 runs]	88.8% [middle of 4 runs]		99.4% [middle of 4 runs]	viability, T/C (compound 10 µM): 5.55% [middle of 4 runs]
> 1 µM	CCN1CCN(Cc2ccc(Nc3ncc(F)c(-c4cc(F)c5nc(C)n(C(C)C)c5c4)n3)nc2)CC1		98.3% [middle of 4 runs]			78% [middle of 4 runs]	viability, T/C (compound 0.00316 µM): 98.9% [middle of 4 runs]
> 10 µM	CNC(=O)c1ccc(N2C(=S)N(c3ccc(C#N)c(C(F)(F)F)c3)C(=O)C2(C)C)cc1F	92.1% [middle of 4 runs]	89% [middle of 4 runs]	106% (2×) and 93.2% and 121%	91.6% [middle of 4 runs]	85.3% [middle of 4 runs]	
	COc1c(OCCCN2CCOCC2)ccc2c3n(c(=NC(=O)c4cnc(N)nc4)nc12)CCN3		40.8% [middle of 8 runs]			22.5% [middle of 8 runs]	viability, T/C (compound 0.00316 µM): 102% [middle of 8 runs]; IC50 [2]: 250 nM [middle of 7 runs]
> 10 µM	C[C@@H](NC(=O)c1ncnc(N)c1Cl)c1ncc(C(=O)Nc2cc(C(F)(F)F)c(Cl)cn2)s1	115% [middle of 4 runs]	107% [middle of 4 runs]	95.1% [middle of 4 runs]			viability, T/C (compound 10 µM): 94.3% [middle of 4 runs]
	Cc1nc(NC(=O)N2CCCC2C(N)=O)sc1-c1ccnc(C(C)(C)C(F)(F)F)c1 (stereo not given)	95.8% [middle of 8 runs]		97.5% [middle of 8 runs]			IC50 [1]: > 10 µM
> 3 µM	Cn1cnc2c(F)c(Nc3ccc(Br)cc3Cl)c(C(=O)NOCCO)cc21						viability, T/C (compound 0.949 µM): 83.3% [middle of 4 runs]; viability, T/C (compound 3 µM): 79.8% [middle of 4 runs]
> 10 µM	Cn1ncc(Cl)c1-c1cc(C(=O)NC(CN)Cc2cccc(F)c2)sc1Cl (stereo not given)			90.9% [middle of 4 runs]	76.5% [middle of 4 runs]	84.6% [middle of 4 runs]	
> 10 µM	Cn1nccc1Nc1nccc(-c2ccn(C(CO)c3ccc(Cl)c(F)c3)c(=O)c2)n1 (stereo not given)		101% (2×) and 108% and 94.5%	101% [middle of 4 runs]	94.1% [middle of 4 runs]		viability, T/C (compound 10 µM): 78.3% [middle of 4 runs]
> 0.1 µM	Cn1ncnc1[C@H]1c2n[nH]c(=O)c3cc(F)cc(c23)N[C@@H]1c1ccc(F)cc1	110% (2×) and 104% and 93.3%		104% [middle of 4 runs]			viability, T/C (compound 0.000316 µM): 105% [middle of 4 runs]; viability, T/C (compound 0.00316 µM): 93.9% [middle of 4 runs]; viability, T/C (compound 0.01 µM): 88.9% [middle of 4 runs]
